In the supplement of paper PMC10307832:

Tests used:
Assay in all cases: relative viability (nuclei count vs DMSO), 5 days (fraction); higher = more cells survive
Kobe2602 + Decitabine = compound: C1=CC(=CC=C1NC(=S)NNC2=C(C=C(C=C2[N+](=O)[O-])C(F)(F)F)[N+](=O)[O-])F [Kobe2602] + Nc1ncn([C@H]2C[C@H](O)[C@@H](CO)O2)c(=O)n1 [Decitabine] (partner 2 µM)
In short: (§1)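 Lung cancer cell lines in 1536-well plates were dosed by pin tool the day after seeding, either with one drug alone or with a fixed anchor-drug dose plus five library-drug doses (not always all listed) in √10 steps. After 5 days, cells were fixed and their nuclei stained in one step (final 0.05% Triton X-100, 1% formaldehyde, 1 ug/ml Hoechst), then counted on 4× images. Relative viability is the nuclei count in treated wells divided by that in vehicle wells. Values are medians of duplicate plates.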

Cabozantinib + Olaparib = compound: COc1cc2nccc(Oc3ccc(NC(=O)C4(C(=O)Nc5ccc(F)cc5)CC4)cc3)c2cc1OC [Cabozantinib] + O=C(c1cc(Cc2n[nH]c(=O)c3ccccc23)ccc1F)N1CCN(C(=O)C2CC2)CC1 [Olaparib] (partner 8 µM)
In short: as §1

Zosuquidar + Crizotinib = compound: O[C@@H](COc1cccc2ncccc12)CN1CCN([C@@H]2c3ccccc3[C@@H]3[C@H](c4ccccc42)C3(F)F)CC1 [Zosuquidar] + C[C@@H](Oc1cc(-c2cnn(C3CCNCC3)c2)cnc1N)c1c(Cl)ccc(F)c1Cl [Crizotinib] (partner 1 µM)
In short: as §1

Zosuquidar + Linsitinib = compound: O[C@@H](COc1cccc2ncccc12)CN1CCN([C@@H]2c3ccccc3[C@@H]3[C@H](c4ccccc42)C3(F)F)CC1 [Zosuquidar] + C[C@]1(O)C[C@@H](c2nc(-c3ccc4ccc(-c5ccccc5)nc4c3)c3c(N)nccn32)C1 [Linsitinib] (partner 1 µM)
In short: as §1

Cell Line	relative viability (Kobe2602 + Decitabine; first compound 0.2 µM)	relative viability (Kobe2602 + Decitabine; first compound 0.6325 µM)	relative viability (Kobe2602 + Decitabine; first compound 2 µM)	relative viability (Kobe2602 + Decitabine; first compound 6.325 µM)	relative viability (Kobe2602 + Decitabine; first compound 20 µM)	relative viability (Cabozantinib + Olaparib; first compound 0.02 µM)	relative viability (Cabozantinib + Olaparib; first compound 0.06325 µM)	relative viability (Cabozantinib + Olaparib; first compound 0.2 µM)	relative viability (Cabozantinib + Olaparib; first compound 0.6325 µM)	relative viability (Cabozantinib + Olaparib; first compound 2 µM)	relative viability (Zosuquidar + Crizotinib; first compound 0.01 µM)	relative viability (Zosuquidar + Crizotinib; first compound 0.03162 µM)	relative viability (Zosuquidar + Crizotinib; first compound 0.1 µM)	relative viability (Zosuquidar + Crizotinib; first compound 0.3162 µM)	relative viability (Zosuquidar + Crizotinib; first compound 1 µM)	relative viability (Zosuquidar + Linsitinib; first compound 0.01 µM)	relative viability (Zosuquidar + Linsitinib; first compound 0.03162 µM)	relative viability (Zosuquidar + Linsitinib; first compound 0.1 µM)	relative viability (Zosuquidar + Linsitinib; first compound 0.3162 µM)	relative viability (Zosuquidar + Linsitinib; first compound 1 µM)
LK-2	0.379	0.293	0.283	0.313	0.442	0.57	0.791	0.815	0.697	0.667	0.237	0.218	0.28	0.274	0.224	0.663	0.745	0.515	0.722	0.574
LOU-NH91	0.794	0.895	0.801	0.809	0.826	0.96	0.984	0.681	0.903	0.925	0.733	0.738	0.691	0.736	0.736	0.937	0.927	0.736	1.03	0.913
LU99A	0.913	1.01	0.746	0.955	0.859	0.304	0.258	0.283	0.281	0.261	0.499	0.671	0.484	0.607	0.571	0.5	0.54	0.483	0.539	0.659
LXF-289	0.387	0.432	0.386	0.381	0.378	1.13	1.22	1.06	0.979	1.07	0.768	0.861	0.799	0.816	0.876	0.888	1	0.94	0.981	1.03
NCI-H23	0.2	0.345	0.316	0.304	0.39		0.386	0.345	0.304	0.348	0.467	0.495	0.512	0.534	0.478	0.601	0.449	0.483	0.504	0.675
NCI-H322M	0.707	0.72	0.693	0.741	0.718	0.831	0.902	0.695	0.781	0.675	0.896	0.929	0.861	0.739	0.91	0.917	0.859	0.729	0.851	0.922
NCI-H358	0.222	0.219	0.225	0.177	0.244	0.708	0.625	0.565	0.529	0.591	0.602	0.497	0.807	0.497	0.532	0.768	0.726	0.715	0.735	0.75
NCI-H441	0.224	0.258	0.224	0.232	0.27	0.787	0.664	0.615	0.59	0.703	0.681	0.788	0.689		0.742	0.505	0.594	0.498		0.478
